The source of these data is publication PMC9748189 (Journal of Pain Research, 2022).

Structures are written as SMILES.

The target in test [1] is T1, COX-1 (Ovis aries, UniProt P05979).
T1 sequence (P05979 25-600): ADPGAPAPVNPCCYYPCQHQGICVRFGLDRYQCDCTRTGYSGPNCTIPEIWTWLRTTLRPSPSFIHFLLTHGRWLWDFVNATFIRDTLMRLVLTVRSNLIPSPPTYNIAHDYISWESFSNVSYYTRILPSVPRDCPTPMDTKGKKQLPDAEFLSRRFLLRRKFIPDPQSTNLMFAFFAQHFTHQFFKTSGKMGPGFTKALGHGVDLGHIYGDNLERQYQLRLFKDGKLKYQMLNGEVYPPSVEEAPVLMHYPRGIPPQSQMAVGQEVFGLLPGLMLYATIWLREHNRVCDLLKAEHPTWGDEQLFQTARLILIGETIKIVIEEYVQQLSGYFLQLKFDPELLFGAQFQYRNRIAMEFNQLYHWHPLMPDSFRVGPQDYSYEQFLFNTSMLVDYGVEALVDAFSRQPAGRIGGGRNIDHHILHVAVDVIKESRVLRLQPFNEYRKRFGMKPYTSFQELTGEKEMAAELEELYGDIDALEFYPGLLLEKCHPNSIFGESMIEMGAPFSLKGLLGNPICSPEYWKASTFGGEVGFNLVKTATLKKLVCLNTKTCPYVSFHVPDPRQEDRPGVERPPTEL
Kind of test: recombinant COX-1 enzyme inhibition. Type of test: biochemical.

Test [2] has as its target T2, COX-2 (Ovis aries, UniProt P79208).
T2 sequence (P79208 17-603): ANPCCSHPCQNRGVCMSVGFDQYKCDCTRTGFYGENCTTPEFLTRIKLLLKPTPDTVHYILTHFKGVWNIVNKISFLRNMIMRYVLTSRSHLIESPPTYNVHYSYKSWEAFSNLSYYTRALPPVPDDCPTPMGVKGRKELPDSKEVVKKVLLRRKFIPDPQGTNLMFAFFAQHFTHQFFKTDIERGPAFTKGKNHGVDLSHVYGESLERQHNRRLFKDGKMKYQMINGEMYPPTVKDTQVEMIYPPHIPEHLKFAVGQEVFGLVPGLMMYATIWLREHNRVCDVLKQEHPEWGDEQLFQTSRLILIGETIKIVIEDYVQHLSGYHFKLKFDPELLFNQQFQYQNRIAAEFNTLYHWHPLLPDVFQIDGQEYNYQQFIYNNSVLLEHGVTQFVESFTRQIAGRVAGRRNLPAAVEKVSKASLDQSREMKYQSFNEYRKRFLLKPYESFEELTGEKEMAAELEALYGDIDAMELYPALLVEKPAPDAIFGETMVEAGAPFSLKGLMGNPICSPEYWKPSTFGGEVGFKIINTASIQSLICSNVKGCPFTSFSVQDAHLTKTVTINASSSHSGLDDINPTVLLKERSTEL
The test is described as follows: recombinant COX-2 enzyme inhibition. The test is classed as biochemical.

By IC50 is commonly meant the concentration that gives 50% inhibition.

With `CC(=O)Oc1ccc(NCCc2ccc(C(F)(F)F)cc2)cc1C(=O)O` [flusalazine, 2-acetoxy-5-(2-4-(trifluoromethyl)-phenethylamino)-benzoic acid], the IC50 in test [1] is 16.2 µM; in test [2], 651 µM.
